Assay results as given in patent publication US20110070232A1, “Combination Therapy with an Antitumor Alkaloid” (Pharma Mar, S.A., priority 2008, published 2011).
“And” between values parts separate entries of the source, which are not always exact repeats. Equal entries are not always repeated. Where two headings read alike, the source gives them in different places.

Tests used:
Type in all cases: in vivo, mice
Hs746T tumors = tested on: Hs746T tumors
Method: Female athymic nude mice (Harlan Sprague Dawley, Madison, Wis.) were utilized for all experiments. Animals were housed in ventilated rack caging with food and water ad libitum. The mice were acclimated for at least 5 days prior to tumor implantation with a tumor cell suspension.
The tumor model used in these studies was Hs746T cell line, which was obtained from the ATCC (Manassas, Va.).
Treatments were initiated on DPI 14.
Tumor size measurements were recorded twice weekly from the treatment initiation until the termination of the study.
(§1) Mean, standard deviation and standard error of the mean were determined for tumor volume for all animal groups at all assessments. Student's t test was performed on tumor volumes at each measurement day, including at the end of the study, to determine whether there were any statistically significant differences between combination treatment groups and single monotherapy treatment groups.

NCI-H460 tumors [1] = conditions: for % Inhibition: PM00104 0.9 mg/kg/day, single agents and combination, r5-r13 = day 9,13,16,21,24,27,30,38,41
Method: (§2) Female athymic nude mice (Harlan Sprague Dawley, Madison, Wis.) were utilized for all experiments. Animals were housed in ventilated rack caging with food and water ad libitum. The mice were acclimated for at least 5 days prior to tumor implantation.
The tumor model used in this study was NCI-H460 cell line which is a human NSCLC cell line obtained from the ATCC (Manassas, Va.). […] Cells from in vitro passage 7 were implanted SC into study mice using a 1 ml syringe with a 13G trocar: 5×10^6 cells/mouse in 0.2 ml 50% Matrigel/50% RPMI medium of NCI-H460 without serum or antibiotics. Bacterial culture was taken on cells used to implant the study.
(§3) Treatments were initiated on DPI 9.
(§4) Tumor size measurements were recorded 2-3 times/week from the treatment initiation until the termination of the study.
as §1

CaLu-6 tumors = conditions: G2 PM00104 0.9 mg/kg/day IV
Source text: as §2
The tumor model used in this study was CaLu-6 cell line which is a human lung cell line obtained from the ATCC (Manassas, Va.). […] Cells from in vitro passage 10 were those implanted SC into study mice.
as §3, §4, §1

NCI-H460 tumors [2] = conditions: G2 PM00104 0.9 mg/kg/day IV
Source text: as §2
The tumor model used in this study was NCI-H460 cell line which is a human lung cell line obtained from the ATCC (Manassas, Va.). […] Cells from in vitro passage 16 were those implanted SC into study mice.
Treatments were initiated on DPI 8.
as §4, §1

[3] = PM00104 0.90 IV, docetaxel 16 IP, oxaliplatin 8 IP mg/kg/day (G2, G3, G5, G7, G9), DPI 14, 21, 28
[4] = PM00104 0.9 mg/kg/day IV and/or Bevacizumab 5 mg/kg/day IP

SMILES: COc1c(C)cc2c(c1O)[C@@H]1[C@@H]3Cc4c(OC(C)=O)c(C)c5c(c4[C@H](CNC(=O)/C=C/c4cccc(C(F)(F)F)c4)N3[C@@H](O)[C@H](C2)N1C)OCO5 [PM00104]
- % T/C on day 14 (Hs746T tumors; [3]): 99.9%
- % T/C on day 19 (Hs746T tumors; [3]): 54.9%
- % T/C on day 22 (Hs746T tumors; [3]): 40.8%
- % T/C on day 26 (Hs746T tumors; [3]): 39.5%
- % T/C on day 29 (Hs746T tumors; [3]): 30.4%
- % T/C on day 32 (Hs746T tumors; [3]): 47.6%
- % T/C on day 39 (Hs746T tumors; [3]): 80.3%
- % Inhibition (Hs746T tumors; day 14, PM00104 0.9 and docetaxel 8 mg/kg/day): 0.1%
- % Inhibition (Hs746T tumors; day 14, PM00104 0.9 and docetaxel 16 mg/kg/day): 0.1%
- % Inhibition (Hs746T tumors; day 14, PM00104 0.9 and oxaliplatin 4 mg/kg/day): 0.1%
- % Inhibition (Hs746T tumors; day 14, PM00104 0.9 and oxaliplatin 8 mg/kg/day): 0.1%
- % Inhibition (Hs746T tumors; day 19, PM00104 0.9 and docetaxel 8 mg/kg/day): 45.1%
- % Inhibition (Hs746T tumors; day 19, PM00104 0.9 and docetaxel 16 mg/kg/day): 45.1%
- % Inhibition (Hs746T tumors; day 19, PM00104 0.9 and oxaliplatin 4 mg/kg/day): 45.1%
- % Inhibition (Hs746T tumors; day 19, PM00104 0.9 and oxaliplatin 8 mg/kg/day): 45.1%
- % Inhibition (Hs746T tumors; day 22, PM00104 0.9 and docetaxel 8 mg/kg/day): 59.2%
- % Inhibition (Hs746T tumors; day 22, PM00104 0.9 and docetaxel 16 mg/kg/day): 59.2%
- % Inhibition (Hs746T tumors; day 22, PM00104 0.9 and oxaliplatin 4 mg/kg/day): 59.2%
- % Inhibition (Hs746T tumors; day 22, PM00104 0.9 and oxaliplatin 8 mg/kg/day): 59.2%
- % Inhibition (Hs746T tumors; day 26, PM00104 0.9 and docetaxel 8 mg/kg/day): 60.5%
- % Inhibition (Hs746T tumors; day 26, PM00104 0.9 and docetaxel 16 mg/kg/day): 60.5%
- % Inhibition (Hs746T tumors; day 26, PM00104 0.9 and oxaliplatin 4 mg/kg/day): 60.5%
- % Inhibition (Hs746T tumors; day 26, PM00104 0.9 and oxaliplatin 8 mg/kg/day): 60.5%
- % Inhibition (Hs746T tumors; day 29, PM00104 0.9 and docetaxel 8 mg/kg/day): 69.6%
- % Inhibition (Hs746T tumors; day 29, PM00104 0.9 and docetaxel 16 mg/kg/day): 69.6%
- % Inhibition (Hs746T tumors; day 29, PM00104 0.9 and oxaliplatin 4 mg/kg/day): 69.6%
- % Inhibition (Hs746T tumors; day 29, PM00104 0.9 and oxaliplatin 8 mg/kg/day): 69.6%
- % Inhibition (Hs746T tumors; day 32, PM00104 0.9 and docetaxel 8 mg/kg/day): 52.4%
- % Inhibition (Hs746T tumors; day 32, PM00104 0.9 and docetaxel 16 mg/kg/day): 52.4%
- % Inhibition (Hs746T tumors; day 32, PM00104 0.9 and oxaliplatin 4 mg/kg/day): 52.4%
- % Inhibition (Hs746T tumors; day 32, PM00104 0.9 and oxaliplatin 8 mg/kg/day): 52.4%
- % Inhibition (Hs746T tumors; day 39, PM00104 0.9 and docetaxel 8 mg/kg/day): 19.7%
- % Inhibition (Hs746T tumors; day 39, PM00104 0.9 and docetaxel 16 mg/kg/day): 19.7%
- % Inhibition (Hs746T tumors; day 39, PM00104 0.9 and oxaliplatin 4 mg/kg/day): 19.7%
- % Inhibition (Hs746T tumors; day 39, PM00104 0.9 and oxaliplatin 8 mg/kg/day): 19.7%
- % T/C on day 9 (NCI-H460 tumors [1]; [4]): 96.3%
- % T/C on day 13 (NCI-H460 tumors [1]; [4]): 97.8%
- % T/C on day 16 (NCI-H460 tumors [1]; [4]): 75.9%
- % T/C on day 21 (NCI-H460 tumors [1]; [4]): 73.2%
- % T/C on day 24 (NCI-H460 tumors [1]; [4]): 66.8%
- % T/C on day 27 (NCI-H460 tumors [1]; [4]): 43.8%
- % T/C on day 30 (NCI-H460 tumors [1]; [4]): 45.1%
- % T/C on day 38 (NCI-H460 tumors [1]; [4]): 125.1%
- % T/C on day 41 (NCI-H460 tumors [1]; [4]): 132.5%
- % Inhibition (NCI-H460 tumors [1]; bevacizumab 5 mg/kg/day): 24.1% and 33.2%
- % Inhibition (NCI-H460 tumors [1]; temsirolimus 10 mg/kg/day): 24.1% and 33.2%
- % Inhibition (NCI-H460 tumors [1]; temsirolimus 20 mg/kg/day): 24.1% and 33.2%
- % T/C on day 9 (CaLu-6 tumors): 104.1%
- % T/C on day 13 (CaLu-6 tumors): 106.0%
- % T/C on day 16 (CaLu-6 tumors): 111.4%
- % T/C on day 20 (CaLu-6 tumors): 115.4%
- % T/C on day 27 (CaLu-6 tumors): 93.9%
- % T/C on day 30 (CaLu-6 tumors): 80.3%
- % T/C on day 34 (CaLu-6 tumors): 81.5%
- % T/C on day 42 (CaLu-6 tumors): 77.2%
- % Inhibition (CaLu-6 tumors; day 9): −4.1%
- % Inhibition (CaLu-6 tumors; day 13): −6.0%
- % Inhibition (CaLu-6 tumors; day 16): −11.4%
- % Inhibition (CaLu-6 tumors; day 20): −15.4%
- % Inhibition (CaLu-6 tumors; day 23): −16.8%
- % Inhibition (CaLu-6 tumors; day 27): 6.1%
- % Inhibition (CaLu-6 tumors; day 30): 19.7%
- % Inhibition (CaLu-6 tumors; day 34): 18.5%
- % Inhibition (CaLu-6 tumors; day 42): 22.8%
- % T/C on day 8 (NCI-H460 tumors [2]): 101.5%
- % T/C on day 10 (NCI-H460 tumors [2]): 86.5%
- % T/C on day 13 (NCI-H460 tumors [2]): 48.5%
- % T/C on day 16 (NCI-H460 tumors [2]): 49.0%
- % T/C on day 20 (NCI-H460 tumors [2]): 47.2%
- % T/C on day 23 (NCI-H460 tumors [2]): 63.0%
- % T/C on day 28 (NCI-H460 tumors [2]): 61.9%
- % T/C on day 31 (NCI-H460 tumors [2]): 81.7%
- % Inhibition (NCI-H460 tumors [2]; day 8): −1.5%
- % Inhibition (NCI-H460 tumors [2]; day 10): 13.5%
- % Inhibition (NCI-H460 tumors [2]; day 13): 51.5%
- % Inhibition (NCI-H460 tumors [2]; day 16): 51.0%
- % Inhibition (NCI-H460 tumors [2]; day 20): 52.8%
- % Inhibition (NCI-H460 tumors [2]; day 23): 37.0%
- % Inhibition (NCI-H460 tumors [2]; day 28): 38.1%
- % Inhibition (NCI-H460 tumors [2]; day 31): 18.3%
